{"source": "ChEMBL document CHEMBL5724914", "about": "“Linking interpersonal differences in gut microbiota composition and drug biotransformation activity” (2024); note: call rule not given here", "key": {"[1]": {"test": "(§1) The drug is tested on Z-030 corresponding to mouse gut metagenome with ENA study accession number: PRJEB37062 and ENA sample accession number: ERS12561829 for biotransformation under anaerobic condition. The drug concentrations were measured over 9 timepoints collected between 0 and 24 hours of incubation by liquid-chromatography-coupled mass spectrometry (LC–MS)", "conditions": "2 µM"}, "[2]": {"test": "as §1, with “Z-027” for “Z-030”, “to” for “to mouse gut”, “ERS12561826” for “ERS12561829”", "conditions": "2 µM"}, "[3]": {"test": "as §1, with “Z-023” for “Z-030”, “to” for “to mouse gut”, “ERS12561822” for “ERS12561829”", "conditions": "2 µM"}, "[4]": {"test": "as §1, with “Z-016” for “Z-030”, “ERS12561815” for “ERS12561829”", "conditions": "2 µM"}, "[5]": {"test": "as §1, with “Z-014” for “Z-030”, “rat” for “mouse”, “ERS12561814” for “ERS12561829”", "conditions": "2 µM"}, "[6]": {"test": "as §1, with “Z-009” for “Z-030”, “pig” for “mouse”, “ERS12561809” for “ERS12561829”", "conditions": "2 µM"}, "[7]": {"test": "as §1, with “Z-004” for “Z-030”, “to” for “to mouse gut”, “ERS12561804” for “ERS12561829”", "conditions": "2 µM"}, "[8]": {"test": "as §1, with “Z-003” for “Z-030”, “pig” for “mouse”, “ERS12561803” for “ERS12561829”", "conditions": "2 µM"}, "[9]": {"test": "as §1, with “Z-001” for “Z-030”, “ERS12561801” for “ERS12561829”", "conditions": "2 µM"}, "[10]": {"test": "as §1, with “WLS-370” for “Z-030”, “human” for “mouse”, “ERS12561793” for “ERS12561829”", "conditions": "2 µM"}, "[11]": {"test": "as §1, with “WLS-086” for “Z-030”, “human” for “mouse”, “ERS12561752” for “ERS12561829”", "conditions": "2 µM"}, "[12]": {"conditions": "human gut metagenome, 24 h, 2 µM"}, "[13]": {"conditions": "human gut metagenome, 24 h, 2 µM", "remark": "listed apart in the source"}, "[14]": {"conditions": "human gut metagenome, 24 h, 2 µM", "remark": "listed apart in the source"}, "[15]": {"conditions": "human gut metagenome, 24 h, 2 µM", "remark": "listed apart in the source"}, "[16]": {"conditions": "human gut metagenome, 24 h, 2 µM", "remark": "listed apart in the source"}, "[17]": {"conditions": "human gut metagenome, 24 h, 2 µM", "remark": "listed apart in the source"}, "[18]": {"conditions": "human gut metagenome, 24 h, 2 µM", "remark": "listed apart in the source"}, "[19]": {"conditions": "human gut metagenome, 24 h, 2 µM", "remark": "listed apart in the source"}, "[20]": {"conditions": "human gut metagenome, 24 h, 2 µM", "remark": "listed apart in the source"}}, "data": [{"smiles": "CC(C)(C(=O)O)c1ccc(C(O)CCCN2CCC(C(O)(c3ccccc3)c3ccccc3)CC2)cc1", "note": "(stereo not given) [FEXOFENADINE]", "values": [{"measurement": "Bacterial Biotransformation", "setting": "[1]", "result": "Compound NOT metabolized"}, {"measurement": "Bacterial Biotransformation", "setting": "[2]", "result": "Compound NOT metabolized"}, {"measurement": "Bacterial Biotransformation", "setting": "[3]", "result": "Compound metabolized"}, {"measurement": "Bacterial Biotransformation", "setting": "[4]", "result": "Compound NOT metabolized"}, {"measurement": "Bacterial Biotransformation", "setting": "[5]", "result": "Compound NOT metabolized"}, {"measurement": "Bacterial Biotransformation", "setting": "[6]", "result": "Compound NOT metabolized"}, {"measurement": "Bacterial Biotransformation", "setting": "[7]", "result": "Compound NOT metabolized"}, {"measurement": "Bacterial Biotransformation", "setting": "[8]", "result": "Compound NOT metabolized"}, {"measurement": "Bacterial Biotransformation", "setting": "[9]", "result": "Compound NOT metabolized"}, {"measurement": "Bacterial Biotransformation", "setting": "[10]", "result": "Compound NOT metabolized"}, {"measurement": "Bacterial Biotransformation", "setting": "[11]", "result": "Compound NOT metabolized"}, {"measurement": "Bacterial Biotransformation", "setting": "[12]", "result": "Compound NOT metabolized"}, {"measurement": "Bacterial Biotransformation", "setting": "[13]", "result": "Compound NOT metabolized"}, {"measurement": "Bacterial Biotransformation", "setting": "[14]", "result": "Compound NOT metabolized"}, {"measurement": "Bacterial Biotransformation", "setting": "[15]", "result": "Compound NOT metabolized"}, {"measurement": "Bacterial Biotransformation", "setting": "[16]", "result": "Compound NOT metabolized"}, {"measurement": "Bacterial Biotransformation", "setting": "[17]", "result": "Compound NOT metabolized"}, {"measurement": "Bacterial Biotransformation", "setting": "[18]", "result": "Compound NOT metabolized"}, {"measurement": "Bacterial Biotransformation", "setting": "[19]", "result": "Compound NOT metabolized"}, {"measurement": "Bacterial Biotransformation", "setting": "[20]", "result": "Compound NOT metabolized"}]}]}
